{"source": "paper PMC11857530", "about": "“Antioxidant Peptides from Miiuy Croaker Swim Bladders: Ameliorating Effect and Mechanism in NAFLD Cell Model through Regulation of Hypolipidemic and Antioxidant Capacity” (Marine Drugs, 2025)", "key": {"[1]": {"system": "AMP-activated protein kinase (AMPK) pathway", "conditions": "via AMPK pathway; ref [58],[61]; cited from earlier work", "excerpt": "(§1) Modern unhealthy lifestyles, especially a HFD and lack of exercise, lead to the large accumulation of lipids in the human body, and the excess FFAs overloaded in the body are transferred from the bloodstream to the liver. If the rate of lipid oxidation is far slower than the synthesis rate, the large amounts of lipids accumulated in the liver will result in lipid metabolism disorder, steatosis, and ultimately the development of NAFLD [4, 58]."}, "[2]": {"system": "liver dysfunction caused by hyperglycemia", "conditions": "ref [29]; cited from earlier work", "excerpt": "(§2) Bioactive peptides (BPs) have been produced from diverse plant and animal proteins, such as mammals, poultry, beans, mollusks, fish, Antarctic krill, algae, etc. Beyond their important nutritional benefits, BPs show remarkable bioactivity and pharmacological functions, with numerous potential applications for human health. […] For example, GINY and DQW from α-lactalbum ..."}, "HepG2 cells": {"system": "HepG2 cells", "assay": "MTT viability of HepG2 cells", "type": "cell-based, human", "conditions": "100 μM, 24 h", "protocol": "HepG2 human hepatoma cell line was purchased from Shanghai Cell Bank, Chinese Academy of Sciences. HepG2 cells were cultured in DMEM containing […] streptomycin, 50 U/mL penicillin, 2 mM glutamine, and 10% FCS in a humidified atmosphere of 5% CO2 at 37 °C.\nThe viability of the HepG2 cells was evaluated using the MTT assay via a previous method. In brief, S7 and S10 were dissolved in growth medium to form a peptide solution with a concentration of 200 μM. Then, the peptide solution was added to the growth medium of HepG2 cells with final concentrations of 10, 50, and 100 μM, and the cells were incubated for 24 h with peptide administration. The control group was treated with the growth medium without peptides. SV (1.0 mM) was used as a positive control."}, "pancreatic lipase (PL)": {"target": "T1, pancreatic lipase (PL) (Sus scrofa, UniProt P00591)", "T1 construct": "purchased Solarbio Life Sciences Co., Ltd. (Beijing, China)", "T1 sequence (P00591 1-450)": "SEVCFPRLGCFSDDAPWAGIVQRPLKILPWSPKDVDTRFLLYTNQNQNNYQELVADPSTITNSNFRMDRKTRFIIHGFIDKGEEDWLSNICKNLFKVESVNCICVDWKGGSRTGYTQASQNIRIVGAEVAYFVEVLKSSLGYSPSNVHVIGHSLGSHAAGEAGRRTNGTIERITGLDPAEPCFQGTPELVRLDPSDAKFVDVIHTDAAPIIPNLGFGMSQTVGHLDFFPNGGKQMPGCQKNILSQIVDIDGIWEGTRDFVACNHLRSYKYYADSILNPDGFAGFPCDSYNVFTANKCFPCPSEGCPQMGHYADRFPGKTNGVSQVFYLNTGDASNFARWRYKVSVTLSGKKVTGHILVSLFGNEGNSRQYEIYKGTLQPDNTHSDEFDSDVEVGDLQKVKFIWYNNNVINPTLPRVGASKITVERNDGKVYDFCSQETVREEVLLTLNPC", "assay": "Pancreatic lipase (PL) inhibitory activity", "type": "biochemical", "conditions": "PNPB substrate, 15 min pre-incubation, 20 min, 37 °C; absorbance 405 nm", "description": "Sodium taurocholate, pancreatic lipase, cholesterol esterase, and Tris buffer solution were purchased from Solarbio Life Sciences Co., Ltd. (Beijing, China). […] P-nitrophenyl butyrate (PNPB) was purchased from Shanghai Macleans Biochemical Co., Ltd. (Shanghai, China).\nThe in vitro pancreatic lipase (PL) inhibitory activity was measured using the method of Cai et al. [78], with slight modifications. Pancreatic lipase was first dissolved in 100 mM Tris buffer (2 mg/mL) and the supernatant was obtained by centrifugation. Tris buffer was then prepared as 0.1% (w/v) PNPB solution. The 50 μL peptide sample was incubated with 50 μL Tris buffer solution and 50 μL pancreatic lipase solution at 37 °C for 15 min, and then 100 μL PNPB solution was added. After 20 min at 37 °C, the absorbance value was measured at 405 nm. In the blank group, pure water was used instead of a sample. In the blank control group, the samples were replaced with pure water and the pancreatic lipase solution was replaced with a buffer solution. […] The pancreatic lipase (PL) inhibitory rate was calculated using the following formula:PL inhibitory rate (%) = [1 − (A − A0)/(B − B0)] × 100%(2) where A, A0, B, and B0 are the absorbance values determined at 405 nm of the sample, the sample control, the blank, and the blank control after the reaction, respectively."}, "PPARα pathway": {"system": "PPARα pathway", "conditions": "activating PPARα pathway; ref [26],[27]; cited from earlier work", "excerpt": "as §2"}, "LXRα/SREBPs/HMGR pathway": {"system": "LXRα/SREBPs/HMGR pathway", "conditions": "via LXRα/SREBPs/HMGR pathway; ref [59],[60]; cited from earlier work", "excerpt": "as §1"}, "OA-induced HepG2 cells": {"system": "OA-induced HepG2 cells", "assay": "Intracellular ROS level (DCFH-DA), OA-induced NAFLD cell model", "type": "cell-based, human", "conditions": "pretreated, compared to model group; concentration not given", "protocol": "The OA-induced NAFLD cell model was established according to previous methods. HepG2 cells in the logarithmic growth phase were seeded into 96-well plates and cultivated in a humidified atmosphere of 5% CO2 at 37 °C for 24 h. OA was dissolved in 10% BSA and added to the DMEM with a final concentration of 80 μM. After this, the cells were cultured for 24 h, and the morphologies of the HepG2 cells were observed and photographed using a microscope. The HepG2 cells in the control wells were cultured for 24 h in DMEM without OA.\nThe ROS level was determined by the dichlorodihydrofluorescein diacetate (DCFH-DA) staining method. Briefly, HepG2 cells were seeded in 12-well plates and DCFH-DA was diluted to a final concentration of 10 μM at a ratio of 1:1000. Next, after the removal of the cell culture medium, the cells were washed three times with PBS. After this, the HepG2 cells were incubated with 10 μM DCFH-DA for 30 min at 37 °C. After washing with PBS three times again, the fluorescence of the HepG2 cells was monitored at 485 nm excitation (535 nm emission). Finally, images were acquired using a fluorescence microscope to observe the fluorescence intensity of DCFH-DA."}, "FFA-damaged HepG2 cells": {"system": "FFA-damaged HepG2 cells", "conditions": "regulating PERK/eIF2α and PERK/IκBα pathways; ref [28]; cited from earlier work", "excerpt": "as §2"}}, "note": "Where no end group is shown, it is not given here."}
{"compound": "VIAPW [antioxidant peptide from Miichthys miiuy muscle]", "values": [{"measurement": "TG and TC content", "setting": "[1]", "value": "decrease the content of TG and TC"}]}
{"compound": "VHVV [A tetrapeptide (VHVV) from soy]", "values": [{"measurement": "Effect on liver dysfunction", "setting": "[2]", "value": "strong preventive effect on liver dysfunction caused by hyperglycemia"}]}
{"compound": "VPDDD [S9, antioxidant peptide separated from swim bladder hydrolysate of the miiuy croaker]", "values": [{"measurement": "Viability of HepG2 cells vs control", "setting": "HepG2 cells", "value": "remarkably lower than that of the control (p < 0.05)"}]}
{"compound": "FSGLR [S7]", "values": [{"measurement": "IC50", "setting": "pancreatic lipase (PL)", "value": 1670, "unit": "µM"}]}
{"compound": "GIEWA [S10]", "values": [{"measurement": "IC50", "setting": "pancreatic lipase (PL)", "value": 1290, "unit": "µM"}]}
{"compound": "GINY [peptide from α-lactalbumin]", "values": [{"measurement": "Alleviation of NAFLD", "setting": "PPARα pathway", "value": "decrease lipid deposition and oxidative stress"}]}
{"compound": "VFVRN [derived from chickpea protein hydrolysate]", "values": [{"measurement": "Hypolipidemic activity", "setting": "LXRα/SREBPs/HMGR pathway", "value": "strong hypolipidemic activity"}]}
{"compound": "CC(=O)N[C@@H](CS)C(=O)O", "note": "[NAC]", "values": [{"measurement": "ROS fluorescence intensity", "setting": "OA-induced HepG2 cells", "value": "showed varying degrees of decrease compared to the model group"}]}
{"compound": "IRWWW [antioxidant peptide from Miichthys miiuy muscle]", "values": [{"measurement": "TG and TC content", "setting": "[1]", "value": "decrease the content of TG and TC"}]}
{"compound": "VLATSGPG [VLATSGPG (VLA), peptide from salmon skins]", "values": [{"measurement": "Lipid content and inflammation", "setting": "FFA-damaged HepG2 cells", "value": "decrease the lipid content and inflammation"}]}
